Patent US20230017045A1, “PYRIDINE AND PYRIMIDINE CARBOXYLATE HERBICIDES AND METHODS OF USE THEREOF” (Dow AgroSciences LLC, priority 2017, published 2023)
Like-named read-outs stand apart in the source and are kept apart here.

Test system: test plant species
Assay: Post-emergent herbicidal activity test (greenhouse, foliar spray, visual growth reduction)
Format: in vivo
Details: post-emergence, 336 h, 140 g ai/ha
Summary of the method: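 Plants grown in greenhouse (15 h photoperiod, 23-29° C day/22-28° C night) to first or second true leaf stage were sprayed overhead with compound in acetone/water/isopropanol/DMSO/crop oil/X-77 carrier at 187 L/ha. Injury was scored visually after 14 d on a 0-100% scale versus solvent-blank and untreated controls.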

[1] = ALOMY: blackgrass (Alopecurus myosuroides), 14 days after application, read-out: Visual Growth Reduction (%) 14 Days After Application, ALOMY
[2] = AMARE: redroot pigweed (Amaranthus retroflexus), 14 days after application, read-out: Visual Growth Reduction (%) 14 Days After Application, AMARE
[3] = AVEFA: wild oat (Avena fatua), 14 days after application, read-out: Visual Growth Reduction (%) 14 Days After Application, AVEFA
[4] = CHEAL: lambsquarters (Chenopodium album), 14 days after application, read-out: Visual Growth Reduction (%) 14 Days After Application, CHEAL
[5] = CIRAR: canada thistle (Cirsium arvense), 14 days after application, read-out: Visual Growth Reduction (%) 14 Days After Application, CIRAR
[6] = CYPES: yellow nutsedge (Cyperus esculentus), 14 days after application, read-out: Visual Growth Reduction (%) 14 Days After Application, CYPES
[7] = DIGSA: crabgrass (Digitaria sanguinalis), 14 days after application, read-out: Visual Growth Reduction (%) 14 Days After Application, DIGSA
[8] = ECHCG: barnyardgrass (Echinochloa crus-galli), 14 days after application, read-out: Visual Growth Reduction (%) 14 Days After Application, ECHCG
[9] = IPOHE: ivy-leaf morning glory (Ipomoea hederacea), 14 days after application, read-out: Visual Growth Reduction (%) 14 Days After Application, IPOHE
[10] = KCHSC: kochia (Bassia scoparia), 14 days after application, read-out: Visual Growth Reduction (%) 14 Days After Application, KCHSC
[11] = ORYSA: rice (Oryza sativa), 14 days after application, read-out: Visual Growth Reduction (%) 14 Days After Application, ORYSA
[12] = SETFA: giant foxtail (Setaria faberi), 14 days after application, read-out: Visual Growth Reduction (%) 14 Days After Application, SETFA
[13] = SORVU: grain sorghum (Sorghum vulgare), 14 days after application, read-out: Visual Growth Reduction (%) 14 Days After Application, SORVU
[14] = STEME: common chickweed (Stellaria media), 14 days after application, read-out: Visual Growth Reduction (%) 14 Days After Application, STEME
[15] = TRZAS: wheat, spring (Triticum aestivum), 14 days after application, read-out: Visual Growth Reduction (%) 14 Days After Application, TRZAS
[16] = blackgrass (Alopecurus myosuroides), 14 Days After Application, read-out: Visual Growth Reduction (%) ALOMY
[17] = canada thistle (Cirsium arvense), 14 Days After Application, read-out: Visual Growth Reduction (%) CIRAR
[18] = crabgrass (Digitaria sanguinalis), 14 Days After Application, read-out: Visual Growth Reduction (%) DIGSA
[19] = lambsquarters (Chenopodium album), 14 Days After Application, read-out: Visual Growth Reduction (%) CHEAL
[20] = redroot pigweed (Amaranthus retroflexus), 14 Days After Application, read-out: Visual Growth Reduction (%) AMARE
[21] = wild oat (Avena fatua), 14 Days After Application, read-out: Visual Growth Reduction (%) AVEFA
[22] = yellow nutsedge (Cyperus esculentus), 14 Days After Application, read-out: Visual Growth Reduction (%) CYPES

SMILES	pest or weed control at 140 g/ha [1]	pest or weed control at 140 g/ha [2]	pest or weed control at 140 g/ha [3]	pest or weed control at 140 g/ha [4]	pest or weed control at 140 g/ha [5]	pest or weed control at 140 g/ha [6]	pest or weed control at 140 g/ha [7]	pest or weed control at 140 g/ha [8]	pest or weed control at 140 g/ha [9]	pest or weed control at 140 g/ha [10]	pest or weed control at 140 g/ha [11]	pest or weed control at 140 g/ha [12]	pest or weed control at 140 g/ha [13]	pest or weed control at 140 g/ha [14]	pest or weed control at 140 g/ha [15]	pest or weed control at 140 g/ha [16]	pest or weed control at 140 g/ha [17]	pest or weed control at 140 g/ha [18]	pest or weed control at 140 g/ha [19]	pest or weed control at 140 g/ha [20]	further results
O=C(O)c1nc(-c2ccc(C(F)(F)C(=O)O)cc2Cl)ccc1Cl [F180, 6-(4-(Carboxy-difluoromethyl)-2-chlorophenyl)-3-chloropicolinic acid]	0 to 29%	0 to 29%	0 to 29%	0 to 29%	0 to 29%	0 to 29%	0 to 29%	0 to 29%	0 to 29%	0 to 29%	0 to 29%	0 to 29%	0 to 29%	0 to 29%	0 to 29%	–	–	–	–	–	–
COC(=O)c1nc(-c2ccc3c(c2)C(F)(F)OC(F)(F)O3)c(F)cc1Cl [F204, Methyl 3-chloro-5-fluoro-6-(2,2,4,4-tetrafluoro-4H-benzo[d][1,3]dioxin-6-yl)picolinate]	–	–	–	–	–	–	–	0 to 29%	30 to 44%	0 to 29%	0 to 29%	0 to 29%	0 to 29%	0 to 29%	0 to 29%	0 to 29%	0 to 29%	0 to 29%	0 to 29%	0 to 29%	pest or weed control at 140 g/ha [21]: 0 to 29%; pest or weed control at 140 g/ha [22]: 0 to 29%
COC(=O)c1nc(-c2ccc(C(F)(F)F)cc2Cl)c(I)cc1Cl [F6, Methyl 3-chloro-6-(2-chloro-4-(trifluoromethyl)phenyl)-5-iodopicolinate]	0 to 29%	0 to 29%	0 to 29%	0 to 29%	60 to 74%	0 to 29%	0 to 29%	–	–	–	–	–	–	–	–	–	–	–	–	–	pest or weed control at 140 g/ha (barnyardgrass (Echinochloa crus-galli), 14 Days After Application, read-out: Visual Growth Reduction (%) ECHCG): 0 to 29%; pest or weed control at 140 g/ha (common chickweed (Stellaria media), 14 Days After Application, read-out: Visual Growth Reduction (%) STEME): 0 to 29%; pest or weed control at 140 g/ha (giant foxtail (Setaria faberi), 14 Days After Application, read-out: Visual Growth Reduction (%) SETFA): 0 to 29%; pest or weed control at 140 g/ha (ivy-leaf morning glory (Ipomoea hederacea), 14 Days After Application, read-out: Visual Growth Reduction (%) IPOHE): 45 to 59%; pest or weed control at 140 g/ha (johnsongrass (Sorghum vulgare), 14 Days After Application, read-out: Visual Growth Reduction (%) SORVU): 45 to 59%; pest or weed control at 140 g/ha (kochia (Bassia scoparia), 14 Days After Application, read-out: Visual Growth Reduction (%) KCHSC): 45 to 59%; pest or weed control at 140 g/ha (rice (Oryza sativa), 14 Days After Application, read-out: Visual Growth Reduction (%) ORYSA): 0 to 29%; pest or weed control at 140 g/ha (wheat, spring (Triticum aestivum), 14 Days After Application, read-out: Visual Growth Reduction (%) TRZAS): 0 to 29%
COC(=O)c1nc(-c2ccc(C#N)cc2OC)c(F)cc1Cl [F351, Methyl 3-chloro-6-(4-cyano-2-methoxyphenyl)-5-fluoropicolinate]	–	–	–	–	–	–	–	30 to 44%	95 to 100%	30 to 44%	0 to 29%	75 to 84%	75 to 84%	0 to 29%	0 to 29%	0 to 29%	0 to 29%	30 to 44%	75 to 84%	60 to 74%	pest or weed control at 140 g/ha [21]: 0 to 29%; pest or weed control at 140 g/ha [22]: 0 to 29%
